Assay results reported in DBAASP.
Values after ≈ are worked out from the molar mass of the structure shown.

Legend:
Assay in all cases: ≥ marks a high value that may be exact or a test limit, other limits are often not marked, values filed in µg/mL are converted to µM
[1] = system: Staphylococcus aureus NCTC 10788
[2] = system: Escherichia coli ATCC 25726
[3] = system: Staphylococcus aureus ATCC 25923
[4] = system: Klebsiella pneumoniae
[5] = system: Pseudomonas aeruginosa
[6] = system: Salmonella typhimurium
[7] = system: Escherichia coli DH5alpha
[8] = system: Micrococcus luteus ATCC 9341
[9] = system: Salmonella typhimurium KCTC 1926
[10] = system: Bacillus subtilis KCTC 3068
[11] = system: Escherichia coli KCTC 1682
[12] = system: Staphylococcus aureus KCTC 1621
[13] = system: Pseudomonas aeruginosa KCTC 1637
[14] = system: Staphylococcus epidermidis KCTC 1917
[15] = system: Escherichia coli ATCC 25922
[16] = system: Staphylococcus aureus ATCC 33591

Row | Compound | MIC [8] | MIC [11] | MIC [12] | MIC [13] | MIC [14] | further results
1 | CC(C)C[C@H](NC(=O)[C@H](CC(C)C)NC(=O)CNC(=O)[C@H](C)NC(=O)[C@H](CC(C)C)NC(=O)[C@H](CC(C)C)NC(=O)CNC(=O)[C@@H]1CCCN1C(=O)[C@H](CC(C)C)NC(=O)[C@@H](N)Cc1ccccc1)C(N)=O [FLPGLLAGLL] |  |  |  |  |  | MIC [1]: ≥ 60 µM
2 | CC[C@H](C)[C@H](NC(=O)[C@H](CC(C)C)NC(=O)[C@H](Cc1cnc[nH]1)NC(=O)[C@@H]1CCCN1C(=O)[C@@H](NC(=O)[C@@H](NC(=O)[C@H](CCCCN)NC(=O)[C@H](C)NC(=O)[C@@H](NC(=O)CNC(=O)[C@H](CCCCN)NC(=O)[C@H](CC(C)C)NC(=O)CNC(=O)[C@H](CC(C)C)NC(=O)[C@H](CCCCN)NC(=O)[C@H](CC(C)C)NC(=O)[C@H](CC(C)C)NC(=O)[C@@H]1CCCN1C(=O)CNC(=O)[C@H](CC(C)C)NC(=O)[C@H](Cc1ccccc1)NC(=O)CN)C(C)C)C(C)C)[C@@H](C)CC)C(=O)N1CCC[C@H]1C(=O)N[C@@H](CO)C(=O)N[C@@H](CCCN=C(N)N)C(=O)N[C@@H](CCC(N)=O)C(=O)N[C@@H](CCC(N)=O)C(=O)O [GFLGPLLKLGLKGVAKVIPHLIPSRQQ] |  |  |  |  |  | MIC [2]: ≥ 40 µM; MIC [3]: 2.5 µM (≈ 7.2 µg/mL)
3 | CC[C@H](C)[C@H](N)C(=O)N[C@@H](CC(C)C)C(=O)N[C@@H](C)C(=O)N[C@@H](Cc1c[nH]c2ccccc12)C(=O)N[C@@H](CCCCN)C(=O)N[C@@H](Cc1c[nH]c2ccccc12)C(=O)N[C@@H](C)C(=O)N[C@@H](Cc1c[nH]c2ccccc12)C(=O)N[C@@H](Cc1c[nH]c2ccccc12)C(=O)N1CCC[C@H]1C(=O)N[C@@H](Cc1c[nH]c2ccccc12)C(=O)N[C@@H](CCCN=C(N)N)C(=O)N[C@@H](CCCN=C(N)N)C(N)=O [ILAWKWAWWPWRR] |  |  |  |  |  | MIC [4]: 25 µM (≈ 46.4 µg/mL); MIC [5]: 100 µM (≈ 185 µg/mL); MIC [6]: 25 µM (≈ 46.4 µg/mL); MIC [7]: 15 µM (≈ 27.8 µg/mL)
4 | CC[C@H](C)[C@H](N)C(=O)N[C@@H](CC(C)C)C(=O)N[C@@H](C)C(=O)N[C@@H](Cc1c[nH]c2ccccc12)C(=O)N[C@@H](CCCCN)C(=O)N[C@@H](Cc1c[nH]c2ccccc12)C(=O)N1CCC[C@H]1C(=O)N[C@@H](Cc1c[nH]c2ccccc12)C(=O)N[C@@H](Cc1c[nH]c2ccccc12)C(=O)N[C@@H](C)C(=O)N[C@@H](Cc1c[nH]c2ccccc12)C(=O)N[C@@H](CCCN=C(N)N)C(=O)N[C@@H](CCCN=C(N)N)C(N)=O [ILAWKWPWWAWRR] |  |  |  |  |  | MIC [4]: 50 µM (≈ 92.7 µg/mL); MIC [5]: 100 µM (≈ 185 µg/mL); MIC [6]: 25 µM (≈ 46.4 µg/mL); MIC [7]: 25 µM (≈ 46.4 µg/mL)
5 | CC[C@H](C)[C@H](N)C(=O)N[C@@H](CC(C)C)C(=O)N1CCC[C@H]1C(=O)N[C@H](C(=O)N[C@@H](CCCCN)C(=O)N[C@H](C(=O)N1CCC[C@H]1C(=O)N[C@H](C(=O)N[C@H](C(=O)N1CCC[C@H]1C(=O)N[C@H](C(=O)N[C@@H](CCCN=C(N)N)C(=O)N[C@@H](CCCN=C(N)N)C(N)=O)C(C)C)C(C)C)C(C)C)C(C)C)C(C)C [ILPVKVPVVPVRR] | ≥ 100 µM |  |  |  |  | 
6 | CC[C@H](C)[C@H](N)C(=O)N[C@@H](CC(C)C)C(=O)N1CCC[C@H]1C(=O)N[C@@H](Cc1c[nH]c2ccccc12)C(=O)N[C@@H](C)C(=O)N[C@@H](Cc1c[nH]c2ccccc12)C(=O)N1CCC[C@H]1C(=O)N[C@@H](Cc1c[nH]c2ccccc12)C(=O)N[C@@H](Cc1c[nH]c2ccccc12)C(=O)N1CCC[C@H]1C(=O)N[C@@H](Cc1c[nH]c2ccccc12)C(=O)N[C@@H](CCCN=C(N)N)C(=O)N[C@@H](CCCN=C(N)N)C(N)=O [ILPWAWPWWPWRR] | 0.8 µM (≈ 1.48 µg/mL) |  |  |  |  | 
7 | CC[C@H](C)[C@H](N)C(=O)N[C@@H](CC(C)C)C(=O)N1CCC[C@H]1C(=O)N[C@@H](Cc1c[nH]c2ccccc12)C(=O)N[C@@H](CCCCN)C(=O)N[C@@H](CCCCN)C(=O)N1CCC[C@H]1C(=O)N[C@@H](CCCCN)C(=O)N[C@@H](CCCCN)C(=O)N1CCC[C@H]1C(=O)N[C@@H](Cc1c[nH]c2ccccc12)C(=O)N[C@@H](CCCN=C(N)N)C(=O)N[C@@H](CCCN=C(N)N)C(N)=O [ILPWKKPKKPWRR] |  | 2.88 µM (≈ 5 µg/mL) | 5.77 µM (≈ 9.99 µg/mL) | 11.5 µM (≈ 20 µg/mL) | 2.88 µM (≈ 5 µg/mL) | MIC [9]: 5.77 µM (≈ 9.99 µg/mL); MIC [10]: 5.77 µM (≈ 9.99 µg/mL)
8 | CC[C@H](C)[C@H](N)C(=O)N[C@@H](CC(C)C)C(=O)N1CCC[C@H]1C(=O)N[C@@H](Cc1c[nH]c2ccccc12)C(=O)N[C@@H](CCCN=C(N)N)C(=O)N[C@@H](Cc1c[nH]c2ccccc12)C(=O)N1CCC[C@H]1C(=O)N[C@@H](Cc1c[nH]c2ccccc12)C(=O)N[C@@H](Cc1c[nH]c2ccccc12)C(=O)N1CCC[C@H]1C(=O)N[C@@H](Cc1c[nH]c2ccccc12)C(=O)N[C@@H](CCCN=C(N)N)C(=O)N[C@@H](CCCN=C(N)N)C(N)=O [ILPWRWPWWPWRR] | 0.4 µM (≈ 0.774 µg/mL) |  |  |  |  | 
9 | CC[C@H](C)[C@H](NC(=O)[C@@H](N)CCCCN)C(=O)N[C@@H](Cc1c[nH]c2ccccc12)C(=O)N[C@@H](Cc1ccccc1)C(=O)N[C@@H](CCC(N)=O)C(=O)N[C@@H](CC(N)=O)C(=O)N[C@@H](CCCN=C(N)N)C(=O)N[C@@H](CCCN=C(N)N)C(=O)N[C@@H](CCSC)C(=O)N[C@@H](CCCCN)C(=O)N[C@@H](Cc1c[nH]c2ccccc12)C(=O)N[C@@H](CCCCN)C(=O)N[C@@H](CCCCN)C(N)=O [KIWFQNRRMKWKK] |  |  |  |  |  | MIC [15]: 128 µM (≈ 237 µg/mL); MIC [16]: ≥ 256 µM
10 | C[C@@H](O)[C@H](NC(=O)[C@H](CCCCN)NC(=O)[C@H](Cc1c[nH]c2ccccc12)NC(=O)[C@H](Cc1c[nH]c2ccccc12)NC(=O)[C@@H](NC(=O)[C@H](CCCCN)NC(=O)[C@@H](N)CCCCN)[C@@H](C)O)C(=O)N[C@@H](Cc1c[nH]c2ccccc12)C(=O)N[C@@H](Cc1c[nH]c2ccccc12)C(=O)N[C@H](C(=O)N[C@@H](CCCCN)C(=O)N[C@@H](Cc1c[nH]c2ccccc12)C(=O)N[C@@H](CCCCN)C(=O)N[C@@H](CCCCN)C(=O)O)[C@@H](C)O [KKTWWKTWWTKWKK] |  | 2 µM (≈ 4.04 µg/mL) | 2 µM (≈ 4.04 µg/mL) | 4 µM (≈ 8.09 µg/mL) | 2 µM (≈ 4.04 µg/mL) | MIC [9]: 2 µM (≈ 4.04 µg/mL); MIC [10]: 2 µM (≈ 4.04 µg/mL)
11 | NCCCC[C@H](NC(=O)[C@H](Cc1c[nH]c2ccccc12)NC(=O)[C@@H]1CCCN1)C(=O)N[C@@H](Cc1c[nH]c2ccccc12)C(=O)N1CCC[C@H]1C(=O)N[C@@H](Cc1c[nH]c2ccccc12)C(=O)N[C@@H](Cc1c[nH]c2ccccc12)C(=O)N1CCC[C@H]1C(=O)N[C@@H](Cc1c[nH]c2ccccc12)C(=O)N[C@@H](CCCN=C(N)N)C(=O)N[C@@H](CCCN=C(N)N)C(N)=O [PWKWPWWPWRR] | 0.8 µM (≈ 1.34 µg/mL) |  |  |  |  | 
12 | CC[C@H](C)[C@H](NC(=O)[C@H](CCCN=C(N)N)NC(=O)[C@H](CC(C)C)NC(=O)[C@H](CC(C)C)NC(=O)[C@@H](N)CCCN=C(N)N)C(=O)N[C@H](C(=O)N[C@H](C(=O)N[C@H](C(=O)N[C@@H](CCCN=C(N)N)C(=O)N[C@H](C(=O)N[C@@H](CC(C)C)C(=O)N[C@@H](CCCN=C(N)N)C(N)=O)C(C)C)[C@@H](C)CC)C(C)C)C(C)C [RLLRIVVIRVLR] |  | 16.6 µM (≈ 25 µg/mL) | 8.3 µM (≈ 12.5 µg/mL) | 4.15 µM (≈ 6.25 µg/mL) | 8.3 µM (≈ 12.5 µg/mL) | MIC [9]: 4.15 µM (≈ 6.25 µg/mL); MIC [10]: 8.3 µM (≈ 12.5 µg/mL)
13 | NC(=O)[C@H](CCCN=C(N)N)NC(=O)[C@H](Cc1c[nH]c2ccccc12)NC(=O)[C@@H](N)CCCN=C(N)N [RWR] |  | ≥ 124 µM | ≥ 124 µM | ≥ 124 µM | ≥ 124 µM | 
